Values quoted from earlier work in patent US11185067B2, “Attractants for rats” (priority 2015, dated 2021).

System: rats
Conditions: odor-painted glass rods inserted into cage; Zhang et al. 2008, 2011

| SMILES | effects on rat behavior |
| --- | --- |
| CCCC(=O)CCC [4-heptanone] | inducing sniffing or licking |
| CCCCCC(C)=O [2-heptanone] | inducing sniffing or licking |
| CCCCCCCC(C)=O [2-nonanone] | inducing sniffing or licking |
